Source: patent US10035796B2, “Crystalline forms of a BACE inhibitor, compositions, and their use” (Merck Sharp & Dohme Corp., priority 2014, dated 2018)

How the values were obtained:
[1] = Hygroscopicity by dynamic vapor sorption (DVS); format: physicochemical
Method: Hygroscopicity was evaluated by using a dynamic vapor sorption instrument (DVI). The experiment was performed under controlled temperature conditions with temperature set at 25° C. Following a drying step at 40° C. for 60 minutes, samples were subjected to water vapor starting from 5% relative humidity with stepwise increase up to 95% relative humidity in 5% increments. The desorption experiment was performed under the same conditions with a stepwise decrease in relative humidity. Maximum equilibrium time was held as 180 minutes with equilibrium criteria as 0.005 weight % in 5 min.

[2] = Single oral dose pharmacokinetic study in male rats; format: in vivo; conditions: male rats (n=4 per group), suspension in 4% hydroxypropyl methylcellulose, nominal dose 100 mg/kg, FIG. 5
Method: (FIG. 5). […] To generate the data shown in FIG. 5, a single oral dose pharmacokinetic study was conducted as a two-way parallel design in male rats (n=4 per group). For each form a suspension was prepared in 4% hydroxypropyl methylcellulose with nominal dose as 100 mg/kg.

## CN1C(=N)N[C@](C)(c2cc(NC(=O)c3ccc(F)cn3)ccc2F)CS1(=O)=O [Crystalline Anhydrous Form 1]
[1]; after sorption/desorption between 5% and 95% relative humidity
  crystalline form by PXRD after the vapor sorption analysis: retain the identical Crystalline Anhydrous Form 1
[1]; ambient temperature, 95% relative humidity, DVS measurement
  moisture uptake: 0.04 weight %
[1]; dynamic vapor sorption, 25° C.
  hygroscopicity according to the European Pharmacopeia classification: non-hygroscopic
[2]
  mean plasma concentration-time profile: essentially identical to that of the corresponding amorphous HCl salt form

## CN1C(N)=NC(C)(c2cc(NC(=O)c3ccc(F)cn3)ccc2F)CS1(=O)=O.Cl (centres unmarked) [amorphous HCl salt form]
[2]
  mean plasma concentration-time profile: excellent
